Experiments:
[1] = design: method as in PMID 22468891; conditions: Phase III clinical trials; cited from earlier work
[2] = cited from earlier work
plasma Aβ42 = system: plasma Aβ42; design: method as in earlier work; conditions: human, 400 mg dose; cited from earlier work
CSF Aβ42 [3] = system: CSF Aβ42; design: method as in PMID 22072214; conditions: dog, single dose of 80 mg/kg; cited from earlier work
[4] = design: method as in earlier work; conditions: high-dose group, rats; cited from earlier work
plaque load = system: plaque load; design: method as in PMID 21232036; conditions: chronic treatment of transgenic mice, exposure below concentrations required for Aβ42 reduction after a single dose; cited from earlier work
[5] = Free fraction in brain (brain tissue binding, Fub); format: in vitro ADME
[6] = Free fraction in plasma (plasma protein binding); format: in vitro ADME
[7] = design: method as in PMID 22072214; conditions: repeated dosing in rat and dog; cited from earlier work
brain Aβ42 = system: brain Aβ42; design: method as in PMID 22429469; conditions: 100 mg/kg oral dose; cited from earlier work
γ-secretase = biological target: T1, γ-secretase (Homo sapiens, UniProt P49768); assay: Cellular Aβ42 lowering in SKNBE2 human neuroblastoma cells carrying hAPP 695 wild-type; format: cell-based; conditions: cellular assay, determined internally
T1 construct: screening was carried out using SKNBE2 human neuroblastoma cells carrying the hAPP 695 wild-type; endogenous in cells; host or cells: SKNBE2 human neuroblastoma cells carrying hAPP 695 wild-type

[8] = Dog model combining PK/PD data with early observations of liver toxicity; format: in vivo
Procedure: (§1) For the cellular in vitro activity of our own compounds, screening was carried out using SKNBE2 human neuroblastoma cells carrying the hAPP 695 wild-type as described in [15]. For a description of the mouse in vivo experiments, see references; for details on the dog in vivo experiments, see [17].
(§2) Both compounds have been tested in advanced animal models, including repeated dosing in rat and dog. […] Based on these findings, further development was halted. Since then, the dog model combining PK/PD data with early observations of liver toxicity is routinely used in our discovery program to triage compounds [17]. Both JNJ-40418677 and JNJ-42601572 contain a considerable number of conjugated aromatic rings and are characterized by high lipophilicity and molecular weight. In recent years a number of publications have appeared relating such properties with a low probability of success in clinical development. Catchy phrases like “molecular obesity” and “escape from flatland” have been used to describe the issues associated with high molecular weight and number of (hetero) aromatic rings in molecules. Based on analysis of compound properties and their attrition or success in (pre)clinical development, guidelines have been formulated and proposed which can be applied during optimization efforts in medicinal chemistry programs to strive towards more drug-like compounds. The concept of ligand efficiency (LE) is now routinely applied in the drug discovery process. It is defined as the binding energy towards a biological target per (heavy = nonhydrogen) atom in a compound. Since most assays are not directly measuring binding energy, IC50 values are often used to make a relative comparison of the LE of compounds. By working towards a high LE, molecular weight can be kept in control while optimizing pharmacological activity. […]

CSF Aβ42 [9] = assay: as above; format: in vivo; conditions: 20 mg/kg p.o.
Procedure: as §1, §2

[10] = Limited tolerance study in rats; format: in vivo; conditions: two-week daily dose of 200 mg/kg

## CC(C)[C@H](O)C(=O)N[C@@H](C)C(=O)N[C@@H]1C(=O)N(C)CCc2ccccc21 [Compound 1, semagacestat]
[1]
  effect on cognition: statistically significant decline in cognition
  risk of skin cancer: increased risk of skin cancer

## C[C@@H](C(=O)O)c1ccc(-c2ccccc2)c(F)c1 [Compound 2, tarenflurbil]
[2]; high dosage
  tolerability in clinical trials: well tolerated
[2]; phase III
  phase III clinical trial outcome: negative results

## COc1cc(/C=C2\CCCN([C@@H](C)c3ccc(F)cc3)C2=O)ccc1-n1cnc(C)c1 [Compound 3]
Plasma Aβ42
  maximum reduction of plasma Aβ42 levels: ~ 50%
CSF Aβ42 [3]
  gene-expression profile in liver tissue: large changes in gene-expression profile
  liver parameters: liver parameter changes
[4]
  lenticular opacity: lenticular opacity was observed

## CC(C)C[C@H](C(=O)O)c1cc(-c2ccc(C(F)(F)F)cc2)cc(-c2ccc(C(F)(F)F)cc2)c1 [Compound 4]
Plaque load
  effect on plaque load: preventive effect on plaque load
[5]
  fraction unbound: < 0.001
[6]
  fraction unbound: < 0.001
[7]
  liver toxicity signs (bilirubin and ALT/AST increases): early signs of liver toxicity were noted

## COc1nc(C(=O)N[C@H]2COc3ccc(Cl)c(F)c32)ccc1-n1cnc(C)c1 [Compound 15]
Brain Aβ42
  lowering of Aβ42 levels in Guinea pig brain: 36%

## COc1nc(-c2nc3n(n2)CCO[C@H]3c2ccccc2OC(F)(F)F)ccc1-n1cnc(C)c1 [Compound 16]
[5]
  fraction unbound: 0.039
γ-secretase
  IC50: 0.056 µM
[8]; CSF, 20 mg/kg oral, 4 h, read-out: CSF compound concentration
  concentration at 4 h: 0.524 ± 0.062 µM
[8]; plasma, po, 20 mg/kg
  Cmax: 24 ± 3 µM
CSF Aβ42 [9]
  bilirubin or ALT levels: no increases in bilirubin or ALT levels were observed
[10]
  signs of liver toxicity: did not lead to overt signs of liver toxicity
